From US11312712B2, “Azabenzimidazoles and their use as AMPA receptor modulators” (Janssen Pharmaceutica NV, priority 2015, dated 2022) come the findings set out here.

Each structure is given as a SMILES string.

Chain of GluA1o-γ8 (GRIA1o-CACNG8 fusion construct) (P42261 other isoform, or with tags, fused parts or gaps): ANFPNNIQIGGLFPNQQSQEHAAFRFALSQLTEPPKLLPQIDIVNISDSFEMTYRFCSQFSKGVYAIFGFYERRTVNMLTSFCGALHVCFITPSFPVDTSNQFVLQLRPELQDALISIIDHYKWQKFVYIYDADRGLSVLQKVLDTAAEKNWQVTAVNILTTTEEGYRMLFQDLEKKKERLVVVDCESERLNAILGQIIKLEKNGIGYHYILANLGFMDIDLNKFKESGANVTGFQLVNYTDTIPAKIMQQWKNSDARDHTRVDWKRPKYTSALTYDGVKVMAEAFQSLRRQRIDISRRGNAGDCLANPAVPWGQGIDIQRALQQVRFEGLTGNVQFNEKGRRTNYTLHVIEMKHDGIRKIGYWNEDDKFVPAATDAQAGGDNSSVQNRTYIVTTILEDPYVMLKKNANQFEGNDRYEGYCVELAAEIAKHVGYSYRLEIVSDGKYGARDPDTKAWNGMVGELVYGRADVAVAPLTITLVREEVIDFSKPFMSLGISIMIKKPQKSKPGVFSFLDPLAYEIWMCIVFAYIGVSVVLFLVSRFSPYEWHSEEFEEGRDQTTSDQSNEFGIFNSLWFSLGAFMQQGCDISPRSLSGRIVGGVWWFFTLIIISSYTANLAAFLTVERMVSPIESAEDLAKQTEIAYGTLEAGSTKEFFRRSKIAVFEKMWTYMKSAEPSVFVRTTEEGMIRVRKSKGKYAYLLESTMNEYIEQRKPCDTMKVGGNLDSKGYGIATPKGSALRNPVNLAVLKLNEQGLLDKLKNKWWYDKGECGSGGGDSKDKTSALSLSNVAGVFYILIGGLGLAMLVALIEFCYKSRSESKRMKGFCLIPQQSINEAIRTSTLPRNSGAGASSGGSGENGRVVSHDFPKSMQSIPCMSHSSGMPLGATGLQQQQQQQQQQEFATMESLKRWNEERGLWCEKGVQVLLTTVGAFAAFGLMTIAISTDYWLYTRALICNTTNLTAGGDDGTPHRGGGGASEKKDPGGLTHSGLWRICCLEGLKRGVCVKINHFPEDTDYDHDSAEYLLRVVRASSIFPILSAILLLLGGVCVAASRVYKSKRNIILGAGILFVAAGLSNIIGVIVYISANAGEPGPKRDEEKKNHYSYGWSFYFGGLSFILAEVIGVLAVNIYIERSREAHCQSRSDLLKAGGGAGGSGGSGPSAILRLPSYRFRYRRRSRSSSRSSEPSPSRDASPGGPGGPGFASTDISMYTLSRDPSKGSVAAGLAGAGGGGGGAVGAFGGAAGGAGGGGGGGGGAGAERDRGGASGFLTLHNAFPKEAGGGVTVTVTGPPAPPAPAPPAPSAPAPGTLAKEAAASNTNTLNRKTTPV

This experiment addresses GluA1o-γ8 (GRIA1o-CACNG8 fusion construct) (Homo sapiens (Human), UniProt P42261+Q8WXS5). Nature of the experiment: Calcium flux assay (FLIPR), inhibition of TARP γ8 dependent AMPA receptor activity. Type of experiment: cell-based. The settings on record: GluA1o-γ8 (GRIA1o-CACNG8 fusion) in HEK293 cells, calcium flux after 15 μM glutamate. Summed up: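 Glutamate (15 μM) was added to a stable HEK293 line carrying the GluA1o–γ8 fusion, which had been preincubated with compound and calcium dye in HEPES buffer, pH 7.4. Normalized FLIPR fluorescence (no compound vs 10 μM CP465022) was fitted with four parameters; pIC50 is the midpoint's negative log.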
As a reminder, the IC50 is the concentration that inhibits the measured activity by half. On to `Cc1ccnc2c1nc(C(F)(F)F)n2-c1cc(C)c2[nH]ncc2c1` [Example 203, 7-Methyl-3-(7-methyl-1H-indazol-5-yl)-2-(trifluoromethyl)imidazo[4,5-b]pyridine], for which the IC50 was 5.01 nM.

On to `FC(F)(F)c1ccc2nc(C(F)(F)F)n(-c3cnc4[nH]ncc4c3)c2n1` [Example 204, 3-(1H-pyrazolo[3,4-b]pyridin-5-yl)-2,5-bis(trifluoromethyl)imidazo[4,5-b]pyridine], for which the IC50 was 12.6 nM. Regarding `[O-][n+]1cc(-n2c(C(F)(F)F)nc3ccc(C(F)(F)F)nc32)cc2cn[nH]c21` [Example 205, 3-(7-Oxido-1H-pyrazolo[3,4-b]pyridin-7-ium-5-yl)-2,5-bis(trifluoromethyl)imidazo[4,5-b]pyridine], the IC50 was 398 nM.

As for `O=c1[nH]c2ccc(-n3c(C(F)(F)F)nc4ccc(C(F)F)nc43)cc2s1` [Example 206, 6-[5-(difluoromethyl)-2-(trifluoromethyl)imidazo[4,5-b]pyridin-3-yl]-3H-1,3-benzothiazol-2-one], the IC50 was 0.316 nM. Take `FC(F)c1ccc2nc(C(F)F)n(-c3cc(Cl)c4[nH]ncc4c3)c2n1` [Example 207, 3-(7-Chloro-1H-indazol-5-yl)-2,5-bis(difluoromethyl)imidazo[4,5-b]pyridine]: the IC50 is 0.0631 nM. On to `FC(F)(F)c1nc2ccc(C3CCC3)nc2n1-c1ccc2[nH]ncc2c1` [Example 208, 5-Cyclobutyl-3-(1H-indazol-5-yl)-2-(trifluoromethyl)imidazo[4,5-b]pyridine], for which the IC50 is 0.158 nM. The result for `CC(C)c1nc2ccc(C(F)F)nc2n1-c1ccc2[nH]ncc2c1` [Example 210, 5-(Difluoromethyl)-3-(1H-indazol-5-yl)-2-isopropyl-imidazo[4,5-b]pyridine] reads 0.631 nM; that for `CC(C)c1nc2ccc(C(C)(F)F)nc2n1-c1ccc2[nH]ncc2c1` [Example 211, 5-(1,1-Difluoroethyl)-3-(1H-indazol-5-yl)-2-isopropyl-imidazo[4,5-b]pyridine], 5.01 nM. Turning to `Cc1cc(-n2c(C(F)F)nc3ccc(C(F)F)nc32)cc2cn[nH]c12` [Example 212, 2,5-Bis(difluoromethyl)-3-(7-methyl-1H-indazol-5-yl)imidazo[4,5-b]pyridine], the IC50 is 0.0794 nM.

In the case of `Cc1ccc2nc(-c3ccnc(F)c3)n(-c3cc(C)c4[nH]ncc4c3)c2n1` [Example 213, 2-(2-Fluoro-4-pyridyl)-5-methyl-3-(7-methyl-1H-indazol-5-yl)imidazo[4,5-b]pyridine], the IC50 was 0.501 nM. `Cc1cc(-n2c(C(C)C)nc3c(N(C)CCF)cc(C(F)(F)F)nc32)cc2cn[nH]c12` [Example 214, N-(2-Fluoroethyl)-2-isopropyl-N-methyl-3-(7-methyl-1H-indazol-5-yl)-5-(trifluoromethyl)imidazo[4,5-b]pyridin-7-amine]: the IC50 was 0.158 nM. Take `O=C1Nc2ccc(-n3c(-c4ccnc(F)c4)nc4ccc(C(F)(F)F)nc43)cc2C1=O` [Example 215, 5-[2-(2-Fluoro-4-pyridyl)-5-(trifluoromethyl)imidazo[4,5-b]pyridin-3-yl]indoline-2,3-dione]: the IC50 is 1580 nM. For the molecule `Cc1cc(-n2c(-c3ccnc(F)c3)nc3ccc(C(F)(F)F)nc32)cc2cn[nH]c12` [Example 217, 2-(2-Fluoro-4-pyridyl)-3-(7-methyl-1H-indazol-5-yl)-5-(trifluoromethyl)imidazo[4,5-b]pyridine], the IC50 was 0.0501 nM. The result for `FCCOc1cc(C(F)(F)F)nc2c1nc(C(F)(F)F)n2-c1cc(Cl)c2[nH]ncc2c1` [Example 218, 3-(7-Chloro-1H-indazol-5-yl)-7-(2-fluoroethoxy)-2,5-bis(trifluoromethyl)imidazo[4,5-b]pyridine] reads 0.0501 nM. On to `OC/C=C/c1cc(-n2c(C(F)(F)F)nc3ccc(C(F)(F)F)nc32)cc2cn[nH]c12` [Example 219, (E)-3-(5-(2,5-Bis(trifluoromethyl)-3H-imidazo[4,5-b]pyridin-3-yl)-1H-indazol-7-yl)prop-2-en-1-ol], for which the IC50 was 15.8 nM.

Consider `OCCCc1cc(-n2c(C(F)(F)F)nc3ccc(C(F)(F)F)nc32)cc2cn[nH]c12` [Example 220, 3-(5-(2,5-Bis(trifluoromethyl)-3H-imidazo[4,5-b]pyridin-3-yl)-1H-indazol-7-yl)propan-1-ol], for which the IC50 is 158 nM.

Regarding `CCCc1cc(-n2c(C(F)(F)F)nc3ccc(C(F)(F)F)nc32)cc2cn[nH]c12` [Example 221, 3-(7-Propyl-1H-indazol-5-yl)-2,5-bis(trifluoromethyl)-3H-imidazo[4,5-b]pyridine], the IC50 is 0.126 nM. Consider `Cc1cc(-n2c(C(F)(F)F)nc3ccc(/C=C/CO)nc32)cc2cn[nH]c12` [Example 222, (E)-3-(3-(7-Methyl-1H-indazol-5-yl)-2-(trifluoromethyl)-3H-imidazo[4,5-b]pyridin-5-yl)prop-2-en-1-ol], for which the IC50 was 31.6 nM. As for `Cc1cc(-n2c(C(F)(F)F)nc3ccc(CCCO)nc32)cc2cn[nH]c12` [Example 223, 3-(3-(7-Methyl-1H-indazol-5-yl)-2-(trifluoromethyl)-3H-imidazo[4,5-b]pyridin-5-yl)propan-1-ol], the IC50 is 100 nM. As for `CCCc1ccc2nc(C(F)(F)F)n(-c3cc(C)c4[nH]ncc4c3)c2n1` [Example 224, 3-(7-Methyl-1H-indazol-5-yl)-5-propyl-2-(trifluoromethyl)-3H-imidazo[4,5-b]pyridine], the IC50 is 0.158 nM.

As to `Oc1cc(-c2nc3ccc(C(F)(F)F)nc3n2-c2ccc3[nH]ncc3c2)ccn1` [Example 225, 4-[3-(1H-Indazol-5-yl)-5-(trifluoromethyl)imidazo[4,5-b]pyridin-2-yl]pyridin-2-ol], the IC50 was 251 nM.

On to `FC(F)(F)c1ccc2ncn(-c3ccc4[nH]ncc4c3)c2n1` [Example 226, 3-(1H-Indazol-5-yl)-5-(trifluoromethyl)imidazo[4,5-b]pyridine], for which the 50% inhibitory concentration (IC50) was 398 nM.

In the case of `FC(F)c1ccc2nc(C3CC3)n(-c3cc(Cl)c4[nH]ncc4c3)c2n1` [Example 227, 3-(7-Chloro-1H-indazol-5-yl)-2-cyclopropyl-5-(difluoromethyl)imidazo[4,5-b]pyridine], the IC50 is 0.0501 nM.

Regarding `Cc1cc(-n2c(-c3ccc(F)cc3)nc3ccc(C(F)F)nc32)cc2cn[nH]c12` [Example 228, 5-(Difluoromethyl)-2-(4-fluorophenyl)-3-(7-methyl-1H-indazol-5-yl)imidazo[4,5-b]pyridine], the IC50 was 0.0158 nM. Consider `Fc1ccc(-c2nc3ccc(C(F)F)nc3n2-c2cc(Cl)c3[nH]ncc3c2)cc1` [Example 229, 3-(7-Chloro-1H-indazol-5-yl)-5-(difluoromethyl)-2-(4-fluorophenyl)imidazo[4,5-b]pyridine], for which the IC50 is 0.00631 nM.

For the molecule `O=c1[nH]c2ccc(-n3c(C(F)(F)F)nc4c(N5CCOCC5)cc(C(F)(F)F)nc43)cc2s1` [Example 230, 6-[7-Morpholino-2,5-bis(trifluoromethyl)imidazo[4,5-b]pyridin-3-yl]-3H-1,3-benzothiazol-2-one], the IC50 is 1 nM. For `FC(F)(F)c1cc(N2CCOCC2)c2nc(C(F)(F)F)n(-c3ccc4[nH]ncc4c3)c2n1` [Example 231, 4-[3-(1H-Indazol-5-yl)-2,5-bis(trifluoromethyl)imidazo[4,5-b]pyridin-7-yl]morpholine], the IC50 was 3.98 nM. For `CCC(F)(F)c1nc2ccc(C(F)(F)F)nc2n1-c1ccc2[nH]ncc2c1` [Example 232, 2-(1,1-Difluoropropyl)-3-(1H-indazol-5-yl)-5-(trifluoromethyl)imidazo[4,5-b]pyridine], the IC50 is 15.8 nM. `O=c1[nH]c2ccc(-n3c(C(F)(F)C(F)(F)F)nc4ccc(C(F)(F)F)nc43)cc2s1` [Example 233, 6-[2-(1,1,2,2,2-Pentafluoroethyl)-5-(trifluoromethyl)imidazo[4,5-b]pyridin-3-yl]-3H-1,3-benzothiazol-2-one]: the IC50 is 0.316 nM. Consider `O=c1[nH]c2ccc(-n3c(C(F)F)nc4ccc(C(F)(F)F)nc43)cc2s1` [Example 234, 6-[2-(Difluoromethyl)-5-(trifluoromethyl)imidazo[4,5-b]pyridin-3-yl]-3H-1,3-benzothiazol-2-one], for which the IC50 was 0.0794 nM. Consider `O=c1[nH]c2ccc(-n3c(C(F)F)nc4ccc(C(F)(F)F)nc43)cc2o1` [Example 235, 6-[2-(Difluoromethyl)-5-(trifluoromethyl)imidazo[4,5-b]pyridin-3-yl]-3H-1,3-benzoxazol-2-one], for which the IC50 was 63.1 nM. Take `O=c1[nH]c2ccc(-n3c(C(F)(F)F)nc4ccc(C(F)(F)F)nc43)cc2o1` [Example 236, 6-[2,5-Bis(trifluoromethyl)imidazo[4,5-b]pyridin-3-yl]-3H-1,3-benzoxazol-2-one]: the IC50 is 6.31 nM. Next, `Fc1n[nH]c2ccc(-n3c(C(F)(F)F)nc4ccc(C(F)(F)F)nc43)cc12` [Example 237, 3-(3-Fluoro-1H-indazol-5-yl)-2,5-bis(trifluoromethyl)imidazo[4,5-b]pyridine]: 2.51 nM. For `FC(F)c1ccc2nc(C(F)(F)F)n(-c3ccc4[nH]ncc4c3)c2n1` [Example 238, 5-(Difluoromethyl)-3-(1H-indazol-5-yl)-2-(trifluoromethyl)imidazo[4,5-b]pyridine], the IC50 was 0.398 nM. As to `COc1nc2ccc(C(F)(F)F)nc2n1-c1ccc2[nH]c(=O)sc2c1` [Example 239, 6-[2-Methoxy-5-(trifluoromethyl)imidazo[4,5-b]pyridin-3-yl]-3H-1,3-benzothiazol-2-one], the IC50 is 2 nM.

On to `CCOc1nc2ccc(C(F)(F)F)nc2n1-c1ccc2[nH]c(=O)sc2c1` [Example 240, 6-[2-Ethoxy-5-(trifluoromethyl)imidazo[4,5-b]pyridin-3-yl]-3H-1,3-benzothiazol-2-one], for which the IC50 is 1 nM.

As for `COc1nc2ccc(C(F)(F)F)nc2n1-c1cc(C)c2[nH]ncc2c1` [Example 241, 2-Methoxy-3-(7-methyl-1H-indazol-5-yl)-5-(trifluoromethyl)imidazo[4,5-b]pyridine], the IC50 is 0.398 nM.
